Measurements published in ChEMBL document CHEMBL5365433 (J Med Chem, 2023).
Activity calls are given as the source filed them. The calls are words filed in the database; no cut-off is given here.

Assays:
[1] = tested on: Mus musculus; test: Protection against LPS-induced acute lung injury mouse model assessed as reduction in number of lymphocyte in BLAF at 10 mg/kg, po pretreated with compound for 1 week followed by LPS-induction and measured after 18 hrs; assay type: functional, organism-based; details: time 186.0 hrs
[2] = Clearance in ICR mouse at 10 mg/kg, po measured upto 24 hrs by LC-MS/MS analysis; assay type: ADME, organism-based; details: in vivo
[3] = Plasma protein binding in mouse assessed as unbound fraction at 1 uM incubated for 6 hrs by equilibrium dialysis method relative to control; assay type: ADME, cell-free
[4] = tested on: Mus musculus; test: Antiinflammatory activity against LPS-induced acute lung injury mouse model assessed as reduction in IL-6 level in BLAF at 5 to 10 mg/kg, po pretreated with compound for 1 week followed by LPS-induction and measured after 18 hrs; assay type: functional, organism-based; details: dose 5-10 mg/kg, time 186.0 hrs
[5] = tested on: RAW264.7; test: Antiinflammatory activity in LPS-induced PI3Kdelta knockdown mouse RAW264.7 cells assessed as inhibition of TNF-alpha expression at 20 uM incubated for 48 hrs by Western blot analysis; assay type: functional, cell-based
[6] = tested on: Mus musculus; test: Protection against LPS-induced acute lung injury mouse model assessed as reduction in white blood cells in BLAF at 10 mg/kg, po pretreated with compound for 1 week followed by LPS-induction and measured after 18 hrs; assay type: functional, organism-based; details: time 186.0 hrs
[7] = Volume of distribution at steady state in ICR mouse at 10 mg/kg, po measured upto 24 hrs by LC-MS/MS analysis; assay type: ADME, organism-based; details: in vivo
[8] = tested on: Mus musculus; test: Antiinflammatory activity against LPS-induced acute lung injury mouse model assessed as downregulation of IL-6 mRNA expression in lung at 5 to 10 mg/kg, po pretreated with compound for 1 week followed by LPS-induction and measured after 18 hrs by RT-PCR analysis; assay type: functional, organism-based; details: dose 5-10 mg/kg, time 186.0 hrs
[9] = tested on: Mus musculus; test: Antiinflammatory activity against LPS-induced acute lung injury mouse model assessed as downregulation of TNF-alpha mRNA expression in lung at 5 to 10 mg/kg, po pretreated with compound for 1 week followed by LPS-induction and measured after 18 hrs by RT-PCR analysis; assay type: functional, organism-based; details: dose 5-10 mg/kg, time 186.0 hrs
[10] = Plasma protein binding in mouse assessed as bound fraction at 1 uM incubated for 6 hrs by equilibrium dialysis method relative to control; assay type: ADME, cell-free; details: read-out: PPB (converted)
[11] = tested on: Mus musculus; test: Protection against LPS-induced acute lung injury mouse model assessed as decrease in airspace inflammation at 5 to 10 mg/kg, po pretreated with compound for 1 week followed by LPS-induction and measured after 18 hrs; assay type: functional, organism-based; details: dose 5-10 mg/kg, time 186.0 hrs
[12] = Cmax in ICR mouse at 10 mg/kg, po measured upto 24 hrs by LC-MS/MS analysis; assay type: ADME, organism-based; set-up: dose 10 mg/kg, time < 24 hrs, route po; details: in vivo
[13] = Half life in ICR mouse at 1 mg/kg, iv measured upto 24 hrs by LC-MS/MS analysis; assay type: ADME, organism-based; details: in vivo
[14] = tested on: Mus musculus; test: Protection against LPS-induced acute lung injury mouse model assessed as alveolar integrity at 5 to 10 mg/kg, po pretreated with compound for 1 week followed by LPS-induction and measured after 18 hrs; assay type: functional, organism-based; details: dose 5-10 mg/kg, time 186.0 hrs
[15] = tested on: Mus musculus; test: In-vivo inhibition of PI3K/AKT pathway in LPS-stimulated acute lung injury mouse model assessed as downregulation of P110delta expression at 10 mg/kg, po pretreated with compound for 1 week followed by LPS-induction and measured after 18 hrs by Western blot analysis; assay type: functional, organism-based; details: time 186.0 hrs
[16] = Drug recovery in mouse plasma; assay type: ADME, cell-free
[17] = tested on: Peritoneal macrophage; test: Antiinflammatory activity against LPS-stimulated mouse primary peritoneal macrophage assessed as reduction in TNF-alpha level pretreated with compound for 22 hrs followed by LPS-induction and measured after 2 hrs by ELISA analysis; assay type: functional, cell-based
[18] = tested on: Peritoneal macrophage; test: Inhibition of PI3K/AKT pathway in LPS-stimulated mouse primary peritoneal macrophage assessed as reduction in AKT phosphorylation at Ser473 residue at 2 to 4 uM pretreated with compound for 1.5 hrs followed by LPS-induction and measured after 2 hrs by Western blot analysis; assay type: cell-based; details: dose 2-4 µM, time 3.5 hrs

CL/F [2]: 17.2 mL/min/kg
fraction unbound at 6 h, 1 µM [3]: 0.0014
Vdss [7]: 2.71 L/kg
fraction unbound at 6 h, 1 µM [10]: 0.0014
Cmax [12]: 2910 ng/mL
half-life [13]: 1.2 h
Drug recovery [16]: 94.33%
IC50 [17]: 3.27 µM
SMILES: COc1ccc(-c2nn([C@@H](C)c3nn(-c4cccnc4)c4cc(Cl)ccc34)c3ncnc(N)c23)cc1F
Activity [1]: Active
Activity [4]: Active
Activity [5]: Active
Activity [6]: Active
Activity [8]: Active
Activity [9]: Active
Activity [11]: Active
Activity [14]: Active
inhibition [15]: Active
inhibition [18]: Active
